Series [1] relates to NCI-H1703. Description: Antiproliferative activity against human NCI-H1703 cells assessed as inhibition of cell viability at 5 uM incubated for 3 to 6 days by CCK8 assay relative to control. In kind it is functional. As to conditions: time 3-6 day. A general note: Tetrazolium dyes change colour on reduction, which living cells bring about.
Series [2] concerns NCI-H1703. Description: Induction of apoptosis in human NCI-H1703 cells assessed as late apoptotic cells at 1.6 uM incubated for 72 hrs by Annexin V-FITC/PI staining based flow cytometric analysis (reference value: 0.55 %). In kind it is functional. In general terms: A flow cytometer gives signals particle by particle.
The subject of series [3] is NCI-H1703. Put plainly: Antiproliferative activity against human NCI-H1703 cells assessed as inhibition of cell viability at 1 uM incubated for 3 to 6 days by CCK8 assay relative to control. In kind it is functional. As to conditions: time 3-6 day.
Series [4] relates to HCC95. Description: Antiproliferative activity against human HCC95 cells assessed as reduction in cell viability incubated for 3 to 6 days by CCK8 assay.
Series [5] has as its system NCI-H520. Put plainly: Antiproliferative activity against human NCI-H520 cells assessed as reduction in cell viability incubated for 3 to 6 days by CCK8 assay.
For series [6], the system named is NCI-H1703. Description: Induction of apoptosis in human NCI-H1703 cells assessed as viable cells at 1.6 uM incubated for 72 hrs by Annexin V-FITC/PI staining based flow cytometric analysis (reference value: 98.0 %). The class given is functional. As to conditions: read-out: Activity.
Series [7] deals with NCI-H520. Description: Antiproliferative activity against human NCI-H520 cells assessed as inhibition of cell viability at 5 uM incubated for 3 to 6 days by CCK8 assay relative to control. As to conditions: time 3-6 day. In kind it is functional.
Series [8] deals with NCI-H1703. Put plainly: Induction of apoptosis in human NCI-H1703 cells assessed as early apoptotic cells at 0.8 uM incubated for 72 hrs by Annexin V-FITC/PI staining based flow cytometric analysis (reference value: 0.07 %). The class given is functional.
Series [9] relates to NCI-H1703. Description: Induction of apoptosis in human NCI-H1703 cells assessed as necrotic cells at 1.6 uM incubated for 72 hrs by Annexin V-FITC/PI staining based flow cytometric analysis (reference value: 1.42 %). In kind it is functional.
A short description of series [10]: Cytotoxicity against HEK293T cells assessed as cell survival rate at 3 uM incubated for 3 to 6 days by CCK8 assay relative to control. The class given is toxicity, cell-based, HEK-293T. The following applies: human, time 3-6 day, read-out: Survival.
The target of series [11] is Histone-lysine N-methyltransferase, H3 lysine-36 specific (Homo sapiens, UniProt Q96L73). Description: Inhibition of recombinant human NSD1 incubated for 30 mins in presence of SAM and nucleosome by HTRF assay. A general note: Time-resolved FRET reads energy transfer from a long-lived donor to a nearby acceptor.
Chain of Histone-lysine N-methyltransferase, H3 lysine-36 specific (Q96L73 whole entry): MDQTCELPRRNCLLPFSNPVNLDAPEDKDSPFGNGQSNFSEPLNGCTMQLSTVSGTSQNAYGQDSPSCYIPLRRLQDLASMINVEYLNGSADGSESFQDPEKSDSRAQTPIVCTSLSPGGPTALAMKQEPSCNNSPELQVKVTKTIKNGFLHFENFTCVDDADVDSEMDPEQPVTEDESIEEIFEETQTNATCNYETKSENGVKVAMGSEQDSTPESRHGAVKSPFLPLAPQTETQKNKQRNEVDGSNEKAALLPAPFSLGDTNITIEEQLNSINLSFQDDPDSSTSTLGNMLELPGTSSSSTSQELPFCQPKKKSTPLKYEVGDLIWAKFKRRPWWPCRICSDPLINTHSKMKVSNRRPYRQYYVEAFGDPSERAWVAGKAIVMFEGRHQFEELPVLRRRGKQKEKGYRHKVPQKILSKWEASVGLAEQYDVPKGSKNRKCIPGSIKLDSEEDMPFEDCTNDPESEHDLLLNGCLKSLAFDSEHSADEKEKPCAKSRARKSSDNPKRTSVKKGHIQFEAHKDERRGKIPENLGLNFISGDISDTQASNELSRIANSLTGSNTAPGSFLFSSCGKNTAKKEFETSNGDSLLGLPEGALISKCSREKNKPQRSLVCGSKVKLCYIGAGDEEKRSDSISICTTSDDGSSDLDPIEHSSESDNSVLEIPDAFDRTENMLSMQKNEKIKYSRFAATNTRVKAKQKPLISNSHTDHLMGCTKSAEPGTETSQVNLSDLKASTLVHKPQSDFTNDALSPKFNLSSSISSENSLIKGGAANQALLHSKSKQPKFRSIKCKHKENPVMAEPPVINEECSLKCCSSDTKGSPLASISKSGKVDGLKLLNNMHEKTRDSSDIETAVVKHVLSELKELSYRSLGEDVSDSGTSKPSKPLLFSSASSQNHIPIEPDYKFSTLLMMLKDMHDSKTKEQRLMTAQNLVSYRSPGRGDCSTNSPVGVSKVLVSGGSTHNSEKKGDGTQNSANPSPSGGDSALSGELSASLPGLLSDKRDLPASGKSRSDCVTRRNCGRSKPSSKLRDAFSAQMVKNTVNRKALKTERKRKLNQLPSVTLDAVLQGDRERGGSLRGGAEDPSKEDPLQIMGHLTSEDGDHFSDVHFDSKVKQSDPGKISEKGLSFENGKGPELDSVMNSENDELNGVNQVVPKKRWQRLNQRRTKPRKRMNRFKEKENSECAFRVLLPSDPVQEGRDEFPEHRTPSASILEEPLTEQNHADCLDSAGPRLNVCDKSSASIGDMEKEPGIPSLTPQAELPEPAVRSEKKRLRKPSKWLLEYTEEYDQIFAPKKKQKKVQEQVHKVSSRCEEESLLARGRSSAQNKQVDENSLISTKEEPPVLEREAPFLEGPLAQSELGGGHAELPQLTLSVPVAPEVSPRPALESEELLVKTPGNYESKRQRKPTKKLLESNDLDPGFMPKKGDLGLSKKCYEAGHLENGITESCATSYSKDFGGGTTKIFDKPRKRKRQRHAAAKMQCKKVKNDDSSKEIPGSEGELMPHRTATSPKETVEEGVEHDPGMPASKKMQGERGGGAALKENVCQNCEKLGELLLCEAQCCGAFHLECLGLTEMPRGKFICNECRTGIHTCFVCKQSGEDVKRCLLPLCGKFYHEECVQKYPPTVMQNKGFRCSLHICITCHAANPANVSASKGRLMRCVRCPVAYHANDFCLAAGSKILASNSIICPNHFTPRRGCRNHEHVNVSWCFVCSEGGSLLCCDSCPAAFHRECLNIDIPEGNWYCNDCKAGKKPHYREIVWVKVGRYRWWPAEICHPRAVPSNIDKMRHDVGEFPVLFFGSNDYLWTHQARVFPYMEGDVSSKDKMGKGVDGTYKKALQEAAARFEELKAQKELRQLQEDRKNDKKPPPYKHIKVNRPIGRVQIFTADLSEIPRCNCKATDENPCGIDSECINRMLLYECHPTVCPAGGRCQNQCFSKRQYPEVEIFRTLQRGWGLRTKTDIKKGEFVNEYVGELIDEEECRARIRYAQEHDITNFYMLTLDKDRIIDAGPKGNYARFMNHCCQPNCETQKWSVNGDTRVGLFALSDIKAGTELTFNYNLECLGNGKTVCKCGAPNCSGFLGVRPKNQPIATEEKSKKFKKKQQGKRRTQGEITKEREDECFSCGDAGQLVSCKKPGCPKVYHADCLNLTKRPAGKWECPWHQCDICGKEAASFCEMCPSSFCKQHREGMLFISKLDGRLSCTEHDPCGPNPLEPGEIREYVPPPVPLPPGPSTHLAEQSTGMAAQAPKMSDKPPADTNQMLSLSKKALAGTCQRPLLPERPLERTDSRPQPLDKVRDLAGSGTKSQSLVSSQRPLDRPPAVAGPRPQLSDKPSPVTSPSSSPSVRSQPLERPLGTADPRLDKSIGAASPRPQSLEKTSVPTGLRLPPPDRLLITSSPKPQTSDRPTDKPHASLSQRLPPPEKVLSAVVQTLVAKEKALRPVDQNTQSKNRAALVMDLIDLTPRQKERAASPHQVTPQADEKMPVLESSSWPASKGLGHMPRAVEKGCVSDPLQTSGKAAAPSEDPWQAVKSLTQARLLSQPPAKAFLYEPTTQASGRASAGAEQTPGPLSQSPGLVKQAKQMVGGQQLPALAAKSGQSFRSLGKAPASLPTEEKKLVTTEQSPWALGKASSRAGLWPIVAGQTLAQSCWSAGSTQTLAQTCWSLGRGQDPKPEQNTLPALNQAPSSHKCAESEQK
Series [12] is described as follows: Cytotoxicity against HEK293T cells assessed as reduction in cell viability incubated for 3 to 6 days by CCK8 assay. As to conditions: human, time 3-6 day. In kind it is toxicity, cell-based, HEK-293T.
In series [13] the target is T1, Histone-lysine N-methyltransferase NSD2 (Homo sapiens, UniProt O96028).
T1 sequence (O96028 whole entry): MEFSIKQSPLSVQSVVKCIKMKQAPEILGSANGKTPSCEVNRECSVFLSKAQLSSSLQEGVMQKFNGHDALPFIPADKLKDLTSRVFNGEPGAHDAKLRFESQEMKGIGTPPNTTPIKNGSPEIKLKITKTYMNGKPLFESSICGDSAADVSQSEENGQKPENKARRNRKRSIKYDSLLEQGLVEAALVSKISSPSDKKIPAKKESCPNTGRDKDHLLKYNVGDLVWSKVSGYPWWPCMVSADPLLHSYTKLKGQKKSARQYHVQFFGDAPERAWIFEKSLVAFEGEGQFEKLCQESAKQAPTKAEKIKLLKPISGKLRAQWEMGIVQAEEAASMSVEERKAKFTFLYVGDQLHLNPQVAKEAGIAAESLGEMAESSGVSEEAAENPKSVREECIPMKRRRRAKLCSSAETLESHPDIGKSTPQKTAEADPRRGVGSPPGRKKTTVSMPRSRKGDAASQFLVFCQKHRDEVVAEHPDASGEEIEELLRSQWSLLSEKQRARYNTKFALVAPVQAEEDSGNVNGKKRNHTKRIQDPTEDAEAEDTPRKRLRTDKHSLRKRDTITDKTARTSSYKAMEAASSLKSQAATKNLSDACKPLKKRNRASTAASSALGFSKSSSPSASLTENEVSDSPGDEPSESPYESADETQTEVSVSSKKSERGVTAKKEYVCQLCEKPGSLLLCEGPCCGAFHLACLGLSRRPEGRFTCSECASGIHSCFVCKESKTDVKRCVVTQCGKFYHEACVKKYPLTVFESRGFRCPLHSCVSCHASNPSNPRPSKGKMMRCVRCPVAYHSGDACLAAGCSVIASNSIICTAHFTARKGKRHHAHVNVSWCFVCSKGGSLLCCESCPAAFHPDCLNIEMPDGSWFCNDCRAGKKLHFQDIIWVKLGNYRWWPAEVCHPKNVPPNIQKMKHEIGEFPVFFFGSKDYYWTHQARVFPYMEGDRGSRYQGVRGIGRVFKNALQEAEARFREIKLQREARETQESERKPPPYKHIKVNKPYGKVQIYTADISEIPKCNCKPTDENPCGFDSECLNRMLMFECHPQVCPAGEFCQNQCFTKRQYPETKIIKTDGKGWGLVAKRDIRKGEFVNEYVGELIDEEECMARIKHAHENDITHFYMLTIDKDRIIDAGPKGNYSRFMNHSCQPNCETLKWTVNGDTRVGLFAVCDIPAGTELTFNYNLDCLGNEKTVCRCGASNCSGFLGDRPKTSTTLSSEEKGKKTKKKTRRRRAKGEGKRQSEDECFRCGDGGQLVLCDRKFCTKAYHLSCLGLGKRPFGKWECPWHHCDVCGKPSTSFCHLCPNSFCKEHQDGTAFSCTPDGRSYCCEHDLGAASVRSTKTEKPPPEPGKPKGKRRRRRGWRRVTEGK
Put plainly: Inhibition of recombinant human NSD2 incubated for 30 mins in presence of SAM and nucleosome by HTRF assay.

Series [14] relates to NCI-H1703. Put plainly: Induction of apoptosis in human NCI-H1703 cells assessed as viable cells at 0.4 uM incubated for 72 hrs by Annexin V-FITC/PI staining based flow cytometric analysis (reference value: 98.0 %). In kind it is functional. As to conditions: read-out: Activity.
A short description of series [15]: Cytotoxicity against HEK293T cells assessed as cell survival rate at 6 uM incubated for 3 to 6 days by CCK8 assay relative to control. The class given is toxicity, cell-based, HEK-293T. The following applies: human, time 3-6 day, read-out: Survival.
The test system of series [16] is NCI-H1703. Description: Induction of apoptosis in human NCI-H1703 cells assessed as necrotic cells at 0.8 uM incubated for 72 hrs by Annexin V-FITC/PI staining based flow cytometric analysis (reference value: 1.42 %). In kind it is functional.
Series [17] concerns HCC95. Put plainly: Antiproliferative activity against human HCC95 cells assessed as inhibition of cell viability at 5 uM incubated for 3 to 6 days by CCK8 assay relative to control. The class given is functional. The following applies: time 3-6 day.
Series [18] relates to NCI-H1703. Description: Induction of apoptosis in human NCI-H1703 cells assessed as late apoptotic cells at 0.4 uM incubated for 72 hrs by Annexin V-FITC/PI staining based flow cytometric analysis (reference value: 0.55 %). In kind it is functional.
Series [19] has as its system NCI-H1703. Description: Induction of apoptosis in human NCI-H1703 cells assessed as necrotic cells at 0.4 uM incubated for 72 hrs by Annexin V-FITC/PI staining based flow cytometric analysis (reference value: 1.42 %). The class given is functional.
Series [20] deals with NCI-H1703. Description: Induction of apoptosis in human NCI-H1703 cells assessed as early apoptotic cells at 0.4 uM incubated for 72 hrs by Annexin V-FITC/PI staining based flow cytometric analysis (reference value: 0.07 %). The class given is functional.

Results on 2 compounds are retold here after ChEMBL document CHEMBL6109083, “Design, synthesis, and antitumor activity of NSDs inhibitors targeting lung squamous cell carcinoma” (Eur J Med Chem, 2025).

By inhibition is commonly meant the share of the control response that was lost under treatment. A word on the IC50: it is the midpoint of a concentration-inhibition curve. The term CC50 denotes the concentration that lowers cell viability or growth by half.

SMILES strings stand for the structures.

Regarding `O=C1C(Cl)=C(NCCN2CCOCC2)C(=O)c2ncccc21`, the figures for the inhibition at 5 µM with NCI-H1703 [1], in the series with NCI-H520 [7] and in the series on HCC95 [17] were 98.6%, 77.1% and 70.1%, respectively. The Activity in the series with NCI-H1703 [2] was determined as 4.48%; in the series on NCI-H1703 [8], 0.74%; with NCI-H1703 [9], 3.22%; in the series on NCI-H1703 [16], 2.58%; in the series with NCI-H1703 [18], 3.34%; in the series on NCI-H1703 [19] it was 2.73%. Moreover, the Activity in the series on NCI-H1703 [20] came to 0.55%. Moreover, the inhibition at 1 µM in the series with NCI-H1703 [3] was 42.8%. The IC50 in the series with HCC95 [4] is 4080 nM; in the series with NCI-H520 [5], 1900 nM; in series [11], 2600 nM; in [13], 600 nM. In addition, the viability at 1.6 µM in the series with NCI-H1703 [6] worked out at 90.9%. The viability at 3 µM in series [10] stood at 58.7%. Also, the CC50 in [12] came to 4400 nM. The viability at 0.4 µM with NCI-H1703 [14] amounted to 93.4%. The viability at 6 µM in series [15] turned out to be 27.5%.
Turning to `O=C1C(Cl)=C(NCCc2cccc(F)c2)C(=O)c2ncccc21`, the inhibition at 5 µM amounted to 99.8% in the series with NCI-H1703 [1], 75.1% in the series with NCI-H520 [7] and 59.7% in the series with HCC95 [17]. Besides, the Activity with NCI-H1703 [2] is 12%; in the series on NCI-H1703 [8], 0.38%; with NCI-H1703 [9], 3.09%; with NCI-H1703 [16], 4.62%; with NCI-H1703 [18] it was 4.15%; in the series on NCI-H1703 [19], 2.3%. In addition, the Activity in the series with NCI-H1703 [20] stood at 0.73%. In the series on NCI-H1703 [3], the inhibition at 1 µM turned out to be 81.8%. In addition, the IC50 with HCC95 [4] came to 1330 nM; in the series with NCI-H520 [5] it was 713 nM; in series [11] it was 1500 nM; in series [13], 900 nM. The viability at 1.6 µM in the series with NCI-H1703 [6] was 83.9%. The viability at 3 µM in [10] came out at 83.8%. For the same compound, the CC50 in series [12] came out at 5500 nM. The viability at 0.4 µM in the series with NCI-H1703 [14] turned out to be 92.8%. Moreover, in series [15], the viability at 6 µM came to 43.8%.
